Results published in publication PMC7756341, “Liposomal FRET Assay Identifies Potent Drug‐Like Inhibitors of the Ceramide Transport Protein (CERT)” (Chemistry (Weinheim an Der Bergstrasse, Germany), 2020).
Values joined by “and” are separate entries in the source; they are usually repeats but may differ in a detail not shown here. Equal entries are not always repeated.

Tested on: HeLa cells
Test: Sphingolipid content of treated HeLa cells by quantitative mass spectrometry
Format: cell-based
Details: for Cer16 / Cer18 / Cer20 / Cer22 / Cer24 / Cer24:1 / Cer total / S1P / SM16 / SM18 / SM20 / SM22 / SM24 / SM24:1 / SM total / Sph / ratio total SM/Cer: HeLa, 42h, single replicates; for Cer16 / Cer18 / Cer20 / Cer22 / Cer24 / Cer24:1 / Cer total / S1P / SM16 / SM18 / SM20 / SM22 / SM24 / SM24:1 / SM total / Sph: 500.000 cells per sample
Method: 5.2 Cellular experiment for lipidomic analysis
Hela cells were cultured in six well plates (177000 cells per well) under standard growth conditions (DMEM with 4mM L-glutamine, 10% FBS, 1% Penicillin-Streptomycin; CO2 incubator with […]
37°C, 5% CO2). […]
After incubation, […]
the adherent cells were washed twice with ice-cold PBS and harvested by treatment with trypsin.
Cells were counted using a Countess II cell counter ( Invitrogen) and adjusted to 500.000 cells per sample. Each sample was then treated as described below.
6. Details for experimental lipidomics
Cells were subjected to lipid extraction using 1.5 mL methanol/chloroform (2:1, v:v) as described. The extraction solvent contained C17-ceramide (Cer17) and C16 -d31-sphingomyelin (d31-SM16) (both Avanti Polar Lipids, Alabaster, USA) as internal standards. Chromatographic separations were achieved on a 1260 Infinity HPLC (Agilent Technologies, Waldbronn, Germany) equipped with a Poroshell 120 EC-C8 column (3.0 × 150 mm, 2.7 µm; Agilent Technologies). A mobile phase system consisting of water (solvent A) and acetonitrile/methanol (1:1, v:v; solvent B), both acidified with 0.1% formic acid, was used for gradient elution at an initial composition of 40:60 (A:B, v:v) and a flow rate of 0.5 mL/min. MS/MS analyses were carried out using a 6490 triple-quadrupole mass spectrometer (Agilent Technologies) operating in the positive electrospray ionization mode (ESI+). The following ion source parameters were set: sheath gas temperature, 375 °C; sheath gas flow, 12 L/min of nitrogen; nebulizer pressure, 30 psi; drying gas temperature, 200 °C; drying gas flow, 15 L/min of nitrogen; capillary voltage, 4000 V; nozzle voltage, 1500 V; iFunnel high pressure RF voltage, 150 V and iFunnel low pressure RF voltage, 60 V. The following mass transitions were recorded (collision energies of 25 eV for all transitions): ceramides: m/z […]
with MassHunter Software (Agilent Technologies). Significance of differences between two samples was calculated by student’s t -test. Asterisks indicate significant differences between treated and untreated samples: * p<0.05; ** p<0.01; *** p<0.005.
Table S1. Sphingolipid content of treated cells.
(1 picture or pasted object on this page, not shown here)

In the case of `CC1=NN(c2ccc(C)c(C)c2)C(=O)/C1=N\Nc1cccc(-c2cccc(C(=O)O)c2)c1O` [17C9, Eltrombopag], the “effect on SM/Cer rate” value (HeLa cells) is reported as “dramatically increased”, the “effect on total sphingomyelin” value (HeLa cells, 48 hours, serum-reduced medium) is reported as “no significant changes” and the Cer16 (1 µM) is reported as 34,40 pmol/sample and 29,98 pmol/sample and 31,42 pmol/sample. For the same molecule, the Cer18 (1 µM) was 3,09 pmol/sample and 3,68 pmol/sample and 2,62 pmol/sample, the Cer20 (1 µM) was 0,85 pmol/sample and 3,45 pmol/sample and 0,80 pmol/sample and the Cer22 (1 µM) was 6,25 pmol/sample and 5,55 pmol/sample and 6,14 pmol/sample. The Cer24 (1 µM) was 18,45 pmol/sample and 16,72 pmol/sample and 19,49 pmol/sample, the “Cer24:1” value (1 µM) was 39,87 pmol/sample and 35,52 pmol/sample and 38,79 pmol/sample and the Cer total (1 µM) was 102,91 pmol/sample and 96,34 pmol/sample and 97,82 pmol/sample. For the same molecule, the S1P (1 µM) was 1,15 pmol/sample and 1,32 pmol/sample and 1,00 pmol/sample, the SM16 (1 µM) was 1737,34 pmol/sample and 1866,45 pmol/sample and 1725,36 pmol/sample and the SM18 (1 µM) was 50,83 pmol/sample and 50,55 pmol/sample and 45,45 pmol/sample. The SM20 (1 µM) was 17,12 pmol/sample and 16,70 pmol/sample and 15,18 pmol/sample, the SM22 (1 µM) was 108,33 pmol/sample and 106,97 pmol/sample and 93,72 pmol/sample and the SM24 (1 µM) was 172,22 pmol/sample and 163,43 pmol/sample and 147,49 pmol/sample. For the same molecule, the “SM24:1” value (1 µM) was 788,48 pmol/sample and 772,38 pmol/sample and 712,32 pmol/sample, the SM total (1 µM) was 2874,32 pmol/sample and 2976,47 pmol/sample and 2739,52 pmol/sample and the Sph (1 µM) was 3,11 pmol/sample and 2,70 pmol/sample and 4,01 pmol/sample. For the same molecule, the “ratio total SM/Cer” value (1 µM) was 29,4 and 28,9 and 28,4, the Cer16 (2.5 µM) was 32,36 pmol/sample and 33,19 pmol/sample and 28,45 pmol/sample and the Cer18 (2.5 µM) was 3,43 pmol/sample and 3,27 pmol/sample and 2,51 pmol/sample. For the same molecule, the Cer20 (2.5 µM) was 2,29 pmol/sample and 1,23 pmol/sample and 0,90 pmol/sample, the Cer22 (2.5 µM) was 6,89 pmol/sample and 6,59 pmol/sample and 5,14 pmol/sample and the Cer24 (2.5 µM) was 19,23 pmol/sample and 20,44 pmol/sample and 16,88 pmol/sample. The “Cer24:1” value (2.5 µM) was 39,53 pmol/sample and 38,37 pmol/sample and 33,82 pmol/sample, the Cer total (2.5 µM) was 103,73 pmol/sample and 103,08 pmol/sample and 87,70 pmol/sample and the S1P (2.5 µM) was 1,23 pmol/sample and 1,05 pmol/sample and 1,02 pmol/sample. For the same molecule, the SM16 (2.5 µM) was 1702,42 pmol/sample and 1763,99 pmol/sample and 1597,48 pmol/sample, the SM18 (2.5 µM) was 47,65 pmol/sample and 51,14 pmol/sample and 44,81 pmol/sample and the SM20 (2.5 µM) was 15,77 pmol/sample and 16,69 pmol/sample and 14,30 pmol/sample. For the same molecule, the SM22 (2.5 µM) was 97,64 pmol/sample and 104,36 pmol/sample and 90,89 pmol/sample, the SM24 (2.5 µM) was 148,54 pmol/sample and 158,37 pmol/sample and 140,98 pmol/sample and the “SM24:1” value (2.5 µM) was 659,70 pmol/sample and 706,74 pmol/sample and 726,62 pmol/sample. For the same molecule, the SM total (2.5 µM) was 2548,15 pmol/sample and 2718,76 pmol/sample and 2821,17 pmol/sample, the Sph (2.5 µM) was 4,57 pmol/sample and 3,32 pmol/sample and 3,82 pmol/sample and the “ratio total SM/Cer” value (2.5 µM) was 29,1 and 26,2 and 27,4. For the same molecule, the Cer16 (5 µM) was 29,49 pmol/sample and 35,89 pmol/sample and 33,40 pmol/sample, the Cer18 (5 µM) was 2,38 pmol/sample and 3,05 pmol/sample and 2,58 pmol/sample and the Cer20 (5 µM) was 0,79 pmol/sample and 0,94 pmol/sample and 0,73 pmol/sample. The Cer22 (5 µM) was 4,97 pmol/sample and 6,52 pmol/sample and 6,08 pmol/sample, the Cer24 (5 µM) was 18,36 pmol/sample and 21,85 pmol/sample and 21,93 pmol/sample and the “Cer24:1” value (5 µM) was 34,90 pmol/sample and 40,79 pmol/sample and 38,77 pmol/sample. The Cer total (5 µM) was 90,90 pmol/sample and 109,04 pmol/sample and 103,49 pmol/sample, the S1P (5 µM) was 0,97 pmol/sample and 0,93 pmol/sample and 0,94 pmol/sample and the SM16 (5 µM) was 1510,97 pmol/sample and 1730,88 pmol/sample and 1785,73 pmol/sample. The SM18 (5 µM) was 45,08 pmol/sample and 52,99 pmol/sample and 49,27 pmol/sample, the SM20 (5 µM) was 14,34 pmol/sample and 17,35 pmol/sample and 16,52 pmol/sample and the SM22 (5 µM) was 86,79 pmol/sample and 107,23 pmol/sample and 102,55 pmol/sample. The SM24 (5 µM) was 143,47 pmol/sample and 171,51 pmol/sample and 164,74 pmol/sample, the “SM24:1” value (5 µM) was 606,54 pmol/sample and 703,57 pmol/sample and 702,64 pmol/sample and the SM total (5 µM) was 2407,20 pmol/sample and 2783,54 pmol/sample and 2821,45 pmol/sample. The Sph (5 µM) was 3,92 pmol/sample and 3,79 pmol/sample and 3,72 pmol/sample and the “ratio total SM/Cer” value (5 µM) was 26,5 and 25,5 and 27,3.
